According to article PMC6594753, “Cystic fibrosis drug ivacaftor stimulates CFTR channels at picomolar concentrations” (eLife, 2019):
Converted amounts (≈) assume the structure as drawn. “And” between values parts separate entries of the source, which are not always exact repeats. Equal entries are not always repeated. Where two headings read alike, the source gives them in different places.

Key:
[1] = Determination of Vx-770 solubility profile (incremental solvent addition; saturated saline, 1-octanol extraction, spectrophotometry at 311 nm); assay type: physicochemical; settings: for solubility at 24 h: aqueous saline (standard bath solution)
Description: We reasoned that some of the reported controversies on Vx-770 effects might be explained by the use of highly supersaturated concentrations of the drug in all published studies, and set out to determine its true solubility profile. Starting from crystalline Vx-770 (Selleck Chemicals), solubilities (S) of the drug in various organic solvents could be readily determined by adding incremental small volumes of solvent until all crystals had been dissolved (Table 1). We found Vx-770 extremely soluble in anhydrous dimethyl sulfoxide (DMSO) (S ~ 0.77 M), and reasonably soluble in 1-octanol (S ~ 3.9 mM) and ethanol (S ~ 3.1 mM). […] To generate an aqueous solution exactly saturated with Vx-770, a small aliquot of crystals was added to an aqueous saline (pH = 7.1) and, after vigorous shaking for 24 hr, visible crystals were removed by repeated filtering and microcrystals sedimented by centrifugation (Materials and methods). The resulting supernatant (our ‘1x saturated’ stock solution) was then used both for determination of Vx-770 solubility (Figure 1b–c), and for functional experiments (Figures 2–5). […] Repeated extraction of the aqueous stock with 1-octanol yielded a flat spectrum ([…], green spectrum, ‘2nd extract’), confirming that all Vx-770 had been efficiently extracted in the first round.
Crystalline Vx-770 (purity 99.58% by HPLC) was purchased from Selleck Chemicals (Houston, TX, USA). Solubilities (S) at 25°C in anhydrous dimethyl sulfoxide (DMSO) (S ~ 0.77 M), 1-octanol (S ~ 3.9 mM), ethanol (S ~ 3.1 mM), octane (S ~ 2.6 mM), and pentane (S ~ 18 μM) were determined by weighing out a small amount (1–2 mg) of crystals on an analytical balance (Kern ABJ), and adding incremental small volumes of solvent, followed by mixing, until all crystals had been dissolved.
To obtain an aqueous solution (pH = 7.1) exactly saturated with Vx-770 (our ‘1x saturated’ stock), a small aliquot of Vx-770 crystals (~0.1 mg) was added to 250 ml of our standard bath solution (in mM: 134 NMDG-Cl, 2 MgCl2, 5 HEPES, 0.5 EGTA, pH = 7.1 with NMDG), and the solution was shaken for 24 hr at 25°C at 200 RPM (New Brunswick Excella E24). Remaining, clearly visible, macrocrystals were removed by filtering the solution twice through an 0.22 μm pore size filter (Millipore Durapore Steritop + Stericup, Merck KGaA, Darmstadt, Germany). To sediment invisible microcrystals, the filtrate was centrifuged at 7200 RCF for 1 hr in 50 ml conical tubes, and the supernatant carefully removed, leaving the last ~1 ml behind. The resulting cleared filtrate was stored and used as a stock solution for all subsequent studies.
The concentration of Vx-770 in the 1x saturated stock was determined by spectrophotometry (NanoPhotometer P300, Implen GmbH). […] To obtain a calibration curve, Vx-770 (from a commercial 10 mM stock dissolved in DMSO, purchased from Selleck Chemicals) was diluted into 1-octanol (saturated with water) to final concentrations of 1, 2, 4, 8, and 16 μM. Absorption spectra were measured in a 1 ml quartz cuvette against 1-octanol (saturated with water) as a blank (Figure 1b, blue spectra). To extract Vx-770 from the 1x saturated aqueous stock, two 15 ml conical tubes, each containing 14 ml of the 1x aqueous stock plus 0.7 ml 1-octanol, were vortexed for 1 min, and then centrifuged at 7200 RCF for 30 min. Approximately 2 × 0.6 ml of the 1-octanol phase was recovered, pooled, and its absorption spectrum measured in a 1 ml quartz cuvette against 1-octanol (saturated with water) as a blank (Figure 1b, red spectrum). To extract the remaining aqueous phase for a second time, the remnants of the 1-octanol phase were carefully discarded from both conical tubes, and 12.5 ml of the remaining aqueous phase (removed by inserting the pipette tip well below the surface) was transferred into two clean conical tubes. The extraction was then repeated using 2 × 0.625 ml 1-octanol, from which 2x ~ 0.5 ml was recovered, pooled, and assayed for optical density (Figure 1b, green spectrum). […]

[2] = as above; assay type: physicochemical; settings: aqueous saline (standard bath solution), read-out: aqueous solubility Saq

solubility ([1]; 1-octanol, 25 °C, organic solvent or mixture, thermodynamic from solid, 1-octanol, 25°C, read-out: S (solubility)): 3900 µM (≈ 1530 µg/mL)
aqueous solubility lower than reported / generally believed ([1]; 25°C): ~ 200 fold
aqueous solubility Saq ([1]; 25°C, pH = 7.1, aqueous saline): ~ 62 nM and ~ 60 nM
solubility ([1]; anhydrous DMSO, 25 °C, organic solvent or mixture, thermodynamic from solid, DMSO, 25°C, read-out: S (solubility)): 770000 µM (≈ 302000 µg/mL)
solubility at 24 h ([1]; 25 °C, pH 7.1, thermodynamic from solid, water (pH=7.1), aqueous saline, 25°C, read-out: S (solubility)): 0.062 µM (≈ 0.0243 µg/mL)
solubility at 24 h ([1]; pH 7.1, 25°C, over pH 7.1 and 7.4, read-out: aqueous solubility estimate): 0.05 to 0.062 µM (≈ 0.0196 to 0.0243 µg/mL)
solubility at 24 h ([1]; pH 7.1, 25°C, pH = 7.1, aqueous saline, read-out: aqueous solubility Saq): 0.06 µM (≈ 0.0235 µg/mL)
solubility ([1]; ethanol, 25 °C, organic solvent or mixture, thermodynamic from solid, ethanol, 25°C, read-out: S (solubility)): 3100 µM (≈ 1220 µg/mL)
pKa ([1]; inferred from solubility at pH 7.4 vs 7.1, read-out: strongest acidic pKa): > 7.4
solubility ([1]; octane, 25 °C, organic solvent or mixture, thermodynamic from solid, octane, 25°C, read-out: S (solubility)): 2600 µM (≈ 1020 µg/mL)
solubility ([1]; octane, 25°C, read-out: S (solubility)): ~2600 µM (≈ 1020 µg/mL)
aqueous solubility at 37°C compared to that at 25°C ([1]; pH = 7.1, higher at 37°C): ~ 2 fold
solubility ([1]; pentane, 25 °C, organic solvent or mixture, thermodynamic from solid, pentane, 25°C, read-out: S (solubility)): 18 µM (≈ 7.06 µg/mL)
solubility ([1]; pentane, 25°C, read-out: S (solubility)): ~18 µM (≈ 7.06 µg/mL)
solubility ([2]; pH 7.1, 37°C, pH = 7.1, aqueous saline): 0.138 ± 0.001 µM (≈ 0.0542 µg/mL)
solubility at 24 h ([2]; pH 7.4, 25°C, pH = 7.4, aqueous saline): 0.05 ± 0.001 µM (≈ 0.0196 µg/mL)
Compound: CC(C)(C)c1cc(C(C)(C)C)c(NC(=O)c2c[nH]c3ccccc3c2=O)cc1O [Vx-770, ivacaftor]
